Test [1] can be described thus: NIH3T3 cell viability loss – ATP luminescence, mouse fibroblasts, counter-screen, dose response (AID 2010).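 Also: cells exposed to compound for about 90 hours before reading.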 It is filed as functional, cell-based.
Test [2] in a line: Trypanosoma cruzi growth suppression in host cells – NIH3T3 host cells, beta-gal luminescence, confirmation (AID 2044).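 Also: intracellular parasites grown in NIH/3T3 mouse fibroblasts as host cells; luminescent beta-galactosidase reporter signal from transgenic T. cruzi replicating inside host cells; inhibitors lower the luminescence signal.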 In kind it is functional, cell-based.

Activity calls are given as the source filed them. Rule as the data show it: actives have a measured EC50 and inactives only a lower limit. A value given as a limit tells only on which side of the number the result lay.

As usually defined, the EC50 is the concentration at which the effect is half-maximal. On to `CCCCn1c2ccc(F)cc2c2nnc(SCCN3CCCCC3)nc21`, for which the EC50 in test [1] is > 60 µM (not active); in test [2], 0.681 µM (active).
For `CCN(CC)CCN(C(=O)c1ccc2c(c1)CCCC2)c1nc2ccc(F)cc2s1`, the concentration for a half-maximal effect (EC50) in test [1] was > 60 µM (not active); in test [2] it was 0.818 µM (active).
With `Cc1oc(-c2cccc(Cl)c2)nc1CN1CCCC(C(=O)NCCCN2CCOCC2)C1` (stereo unspecified), the half-maximal effective concentration (EC50) in test [1] was > 60 µM (not active); in test [2], 0.234 µM (active).
For `Cc1nn(Cc2ccc(F)cc2)c(Cl)c1/C=N/NC(=O)c1ccccc1`, the EC50 in test [1] is > 60 µM (not active); in test [2], 2.67 µM (active).
The like results for `O=C(COc1ccccc1)NC(=S)Nc1ccc2c(c1)Cc1ccccc1-2` were, in that order, > 60 µM (not active) and 0.641 µM (active).
`CCO/C(O)=C/C1=NC2(CCCCC2)Cc2cc(OC)c(OC)cc21`: the figures for the EC50 in test [1] and in test [2] were > 60 µM (not active) and 2.2 µM (active), respectively.
With `CC(C)c1cccc(OCCCCN(C)C)c1`, the values for the EC50 in test [1] and in test [2] were > 60 µM (not active) and 0.587 µM (active), respectively.
For the molecule `COc1cccc(CN2CCN(Cc3c(C)nn(C(C)C)c3C)CC2CCO)c1` (stereo unspecified), the results for the concentration for a half-maximal effect (EC50) in test [1] and in test [2] were > 60 µM (not active) and 1.14 µM (active), respectively.
In the case of `CC(=O)c1ccc(N2CCN(C(=O)c3ccc(Cn4c(=S)[nH]c5ccc(N6CCOCC6)cc5c4=O)cc3)CC2)cc1`, the EC50 in test [1] is > 60 µM (not active); in test [2] it was 1.07 µM (active).
As for `Cc1ccc(S(=O)(=O)NCC(c2cccnc2)N2CCN(Cc3ccccc3)CC2)cc1` (stereo unspecified), the EC50 was > 60 µM (not active) in test [1] and 0.732 µM (active) in test [2].
The like results for `Fc1ccccc1Cc1noc(CN2CCN(C/C=C/c3ccccc3)CC2)n1` were, in that order, > 60 µM (inconclusive) and 0.443 µM (active).
On to `O=C1C2C(c3ccccc3)CC=CC2[C@H](c2cccc([N+](=O)[O-])c2)N1Cc1ccccc1` (stereo partly specified), for which the EC50 in test [1] is > 60 µM (not active); in test [2] it was 2.17 µM (active).
As for `COc1c(C)cc(Br)cc1C(=O)Nc1ccc(Cc2ccncc2)cc1`, the figures for the half-maximal effective concentration (EC50) in test [1] and in test [2] were > 60 µM (not active) and 2.16 µM (active), respectively.
Turning to `CC(COc1cccc2ccccc12)CN1CCN(C)CC1` (stereo unspecified), the EC50 was > 30 µM (not active) in test [1] and 0.284 µM (active) in test [2].
With `COc1ccc(N2CCN(C(=O)c3ccc(Cn4c(=S)[nH]c5ccc(N6CCOCC6)cc5c4=O)cc3)CC2)cc1`, the EC50 in test [1] is > 30 µM (not active); in test [2] it was 0.684 µM (active).
As for `C=CCNCCOCCOc1ccc(C)cc1Br`, the EC50 in test [1] is > 60 µM (not active); in test [2] it was 3.36 µM (active).
Taken in the same sequence, the figures for `CC(C)OC(=O)c1cn(-c2ccccc2)nc1-c1ccco1` were 31.6 µM (active) and 1.61 µM (active).
Turning to `CN(CCc1ccccn1)Cc1ccc(Cl)cc1`, the concentration giving a half-maximal response (EC50) in test [1] was > 60 µM (not active); in test [2] it was 0.221 µM (active).
Take `COc1cc(S(=O)(=O)N2CCC(O)(c3cccc(C(F)(F)F)c3)CC2)ccc1-n1cnnn1`: the 50% effective concentration (EC50) in test [1] was > 60 µM (not active); in test [2], 2.61 µM (active).
On to `CCN(CC)P(=O)(Nc1ccccc1Br)c1ccc(N(C)C)cc1NC(=O)c1ccco1` (stereo unspecified), for which the EC50 was > 60 µM (not active) in test [1] and 1.95 µM (active) in test [2].
Regarding `CN1/C(=C/c2cccc[n+]2C)Sc2ccccc21`, the values for the EC50 in test [1] and in test [2] were > 60 µM (not active) and 0.185 µM (active), respectively.
Regarding `Cc1nn(CC(N)=O)c(=O)c2ccccc12`, the figures for the EC50 in test [1] and in test [2] were > 30 µM (not active) and 0.903 µM (active), respectively.
As to `O=C(Nc1nc(-c2ccc(F)cc2)cs1)C1CCN(C(=O)c2ccc(F)cc2)CC1`, the EC50 is > 60 µM (not active) in test [1] and 4.57 µM (active) in test [2].

For the origin of these results see ChEMBL document CHEMBL1201862, “PubChem BioAssay data set” (2004).
